Assay [1] has as its system IL-1-beta secretion by peripheral blood mononuclear cells (PBMC). Briefly: LPS-stimulated PBMC cytokine secretion, IL-1-beta ELISA. It is filed as cell-based, human. An excerpt:
(§1) FIG. 1 and the following two tables show data from an in vitro experiment using PBMC from a healthy donor who provided peripheral blood mononuclear cells (PBMC) for this experiment. (PBMC are isolated from whole blood by gradient centrifugation. PBMC contain mostly lymphocytes and monocytes (neutrophils having been excluded by the separation procedure). They are commonly used to assess immune functions in vitro.) The PBMC were stimulated with LPS. (LPS is lipopolysaccharide, a component of bacterial cell wall, which is commonly used as an antigen non-specific stimulator (also called a mitogen) of immune cell proliferation, synthesis and secretion. It is commonly used in vitro to simulate an immune response in vivo. Chemicals which block the LPS stimulated synthesis or secretion of pro-inflammatory mediators by immune cells (primarily lymphocytes and monocytes) may have similar activity in vivo and therefore may have anti-inflammatory activity in vivo.) After 24 to 48 hours, the supernatant from each culture well was collected and assayed for the pro-inflammatory mediator noted (tumer necrosis factor (TNF)-alpha or IL-1-beta using a modified enzyme linked immunosorbent assay (ELISA). […]

Assay [2] relates to TNF-alpha secretion by peripheral blood mononuclear cells (PBMC). Briefly: LPS-stimulated PBMC cytokine secretion, TNF-alpha ELISA. It is filed as cell-based, human.
Source text: as §1

The mark [3] stands for this setting: eggplant extract plus iron at 0.25%, percent of maximal secretion.

Take `C[C@]12CCC(=O)C=C1CC[C@@H]1[C@@H]2[C@@H](O)C[C@@]2(C)[C@H]1CC[C@]2(O)C(=O)CO` [Hydrocortisone]: the “Mean IL-1 beta release” value in assay [1] (eggplant extract + iron at 0.25%, supernatant after 24 to 48 hours, +LPS no drug 3507.8) is on record as 1757.8 picograms of cytokine per 1x10^6 cells. Also, the “Mean IL-1-beta released, percent of +LPS (no drug)” value in assay [1] (setting [3]) is 50%. Also, the “Mean TNF-alpha release” value in assay [2] (eggplant extract + iron at 0.25%, supernatant after 24 to 48 hours, +LPS no drug 11753.0) is reported as 298.8 picograms of cytokine per 1x10^6 cells. Besides, the “Mean TNF-alpha released, percent of +LPS (no drug)” value in assay [2] (setting [3]) was 3%.

The record behind these values is US7341751B2, “Eggplant extract for medical treatments” (priority 2006, dated 2008).
